These results are taken from patent publication US4861793A, “D-nor-7-ergoline derivatives having anti-Parkinson and antipsychosis activity and pharmaceutical compositions containing them” (Farmitalia Carlo Erba, S.p.A, priority 1986, dated 1989).

One test addresses T1, α2 receptors (Rattus norvegicus, UniProt P22909).
T1 construct: from tissue
T1 sequence (P22909 1-465): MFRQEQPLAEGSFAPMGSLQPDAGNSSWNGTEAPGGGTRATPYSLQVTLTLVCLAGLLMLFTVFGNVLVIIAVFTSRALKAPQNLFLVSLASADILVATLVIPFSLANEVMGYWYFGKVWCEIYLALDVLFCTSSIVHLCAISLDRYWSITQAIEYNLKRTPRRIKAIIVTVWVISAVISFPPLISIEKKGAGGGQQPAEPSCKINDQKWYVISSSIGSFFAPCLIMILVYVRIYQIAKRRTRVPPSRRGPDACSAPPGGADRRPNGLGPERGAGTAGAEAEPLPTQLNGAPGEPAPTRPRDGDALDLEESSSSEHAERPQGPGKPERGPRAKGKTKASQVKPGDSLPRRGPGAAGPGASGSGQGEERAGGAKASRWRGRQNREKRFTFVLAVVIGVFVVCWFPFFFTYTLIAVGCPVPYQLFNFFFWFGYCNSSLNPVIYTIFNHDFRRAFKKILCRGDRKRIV
Description: affinity to α2 receptors (test described by Djop, J. Neurochemistry, 41, p. 710 (1983)). Format: binding. The settings on record: α2 receptor; IC means inhibitory concentration. The source says: (§1) The activity of the compounds of the present invention has been confirmed by their affinity to α2 and D1 receptors, according to the tests described by Djop, J. Neurochemistry, 41, p. 710 (1983) and by Billard et al., Life Science, p. 35 (1985).

Another test concerns the target T2, D1 receptors (Rattus norvegicus, UniProt P18901).
T2 construct: from tissue
Description: affinity to D1 receptors (test described by Billard et al., Life Science, p. 35 (1985)). Format: binding. The conditions noted are these: D1 receptor; IC means inhibitory concentration.
Excerpt: as §1

T2 sequence (P18901 whole entry): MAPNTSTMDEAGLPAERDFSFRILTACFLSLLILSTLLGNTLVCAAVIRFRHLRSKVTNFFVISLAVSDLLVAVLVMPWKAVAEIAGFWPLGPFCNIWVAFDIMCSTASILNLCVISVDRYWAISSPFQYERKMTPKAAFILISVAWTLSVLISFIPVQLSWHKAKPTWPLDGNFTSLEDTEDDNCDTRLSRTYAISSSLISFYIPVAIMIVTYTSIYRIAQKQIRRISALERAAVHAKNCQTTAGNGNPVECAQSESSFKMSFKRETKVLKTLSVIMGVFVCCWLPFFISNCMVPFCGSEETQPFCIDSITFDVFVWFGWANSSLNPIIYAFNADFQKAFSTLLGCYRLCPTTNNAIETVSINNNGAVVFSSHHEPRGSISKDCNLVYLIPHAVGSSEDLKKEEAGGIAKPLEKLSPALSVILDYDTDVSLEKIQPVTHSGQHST

`CCNC(=O)N(CCCN(C)C)C(=O)CC1CC2c3cccc4[nH]cc(c34)CC2N1C` [Example 6, D-nor-6-methyl-7[N-(3-dimethylaminopropyl)-N-(ethylcarbamoyl)]-carbamoylmethyl-ergoline]: the figures for the IC50 against α2 receptors and on D1 receptors were 0.4 nM and 0.9 nM, respectively.
For the compound `CN1C(CCNC(=O)OCc2ccccc2)CC2c3cccc4[nH]cc(c34)CC21` [Example 8, D-nor-6-methyl-7-benzyloxycarbamoylethyl-ergoline], the IC50 at α2 receptors stood at 0.04 nM; against D1 receptors it was 0.7 nM.
The matching figures for `CN1C(CCN2CC(=O)NC2=O)CC2c3cccc4[nH]cc(c34)CC21` [Example 10, D-nor-6-methyl-7-(2,4-dioxo-1-imidazolidinyl-ethyl)-ergoline]: 0.05 nM and 0.4 nM.
